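Grown in 96-well plates, cells were treated for 48 hours with each compound at five concentrations. Insufficient inhibition: endpoint recorded as highest concentration tested. GI50 = concentration required for 50% inhibition of growth. Definition used: TGI = concentration required for complete inhibition of growth.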
Tests used:
Assay in all cases: NCI tumour cell line growth inhibition, 48 h
SR leukemia = test system: SR leukemia
MOLT-4 leukemia = test system: MOLT-4 leukemia
UACC-257 melanoma = test system: UACC-257 melanoma
A549 NSCLC = test system: A549 NSCLC
HT29 colon = test system: HT29 colon
ACHN renal = test system: ACHN renal
OVCAR-3 ovarian = test system: OVCAR-3 ovarian
CCRF-CEM leukemia = test system: CCRF-CEM leukemia
M14 melanoma = test system: M14 melanoma
NCI-H23 lung = test system: NCI-H23 lung
MALME-3M melanoma = test system: MALME-3M melanoma
NCI/ADR-RES ovarian = test system: NCI/ADR-RES ovarian
SK-MEL-2 melanoma = test system: SK-MEL-2 melanoma
SK-MEL-28 melanoma = test system: SK-MEL-28 melanoma
NCI-H226 lung = test system: NCI-H226 lung
OVCAR-5 ovarian = test system: OVCAR-5 ovarian
MDA-MB-435 = test system: MDA-MB-435
K-562 leukemia = test system: K-562 leukemia
COLO 205 colon = test system: COLO 205 colon
LOX IMVI melanoma = test system: LOX IMVI melanoma
KM12 colon = test system: KM12 colon
MCF7 breast = test system: MCF7 breast
OVCAR-4 ovarian = test system: OVCAR-4 ovarian
SF-539 CNS = test system: SF-539 CNS
HS 578T breast = test system: HS 578T breast
UO-31 renal = test system: UO-31 renal
SF-268 CNS = test system: SF-268 CNS
HL-60(TB) leukemia = test system: HL-60(TB) leukemia
PC-3 prostate = test system: PC-3 prostate
U251 CNS = test system: U251 CNS
UACC-62 melanoma = test system: UACC-62 melanoma
786-0 renal = test system: 786-0 renal
SF-295 CNS = test system: SF-295 CNS
TK-10 renal = test system: TK-10 renal
RPMI-8226 leukemia = test system: RPMI-8226 leukemia
SK-MEL-5 melanoma = test system: SK-MEL-5 melanoma
EKVX NSCLC = test system: EKVX NSCLC
NCI-H522 lung = test system: NCI-H522 lung
SN12C renal = test system: SN12C renal
HCT-15 colon = test system: HCT-15 colon
SK-OV-3 ovarian = test system: SK-OV-3 ovarian
HOP-62 NSCLC = test system: HOP-62 NSCLC
T-47D breast = test system: T-47D breast
SW-620 colon = test system: SW-620 colon
HCT-116 colon = test system: HCT-116 colon
BT-549 breast = test system: BT-549 breast
A498 renal = test system: A498 renal
HCC-2998 colon = test system: HCC-2998 colon
MDA-MB-231 breast = test system: MDA-MB-231 breast
RXF 393 renal = test system: RXF 393 renal
OVCAR-8 ovarian = test system: OVCAR-8 ovarian
SNB-19 CNS = test system: SNB-19 CNS
IGROV1 ovarian = test system: IGROV1 ovarian
HOP-92 NSCLC = test system: HOP-92 NSCLC
NCI-H460 lung = test system: NCI-H460 lung
SNB-75 CNS = test system: SNB-75 CNS

`C/C=C\C(=O)O[C@@H]1CC2O[C@@H]3C=C(C)C(=O)C[C@]3(C)[C@]1(C)[C@]21CO1` was tested. Which GI50 (SR leukemia) did it give?
Its GI50 is 670 nM.

And the TGI (SR leukemia)?
Its TGI is 3040 nM.

And the GI50 (MOLT-4 leukemia)?
The GI50 was 581 nM.

What about the TGI (MOLT-4 leukemia) of the same compound?
The TGI was 2240 nM.

And the GI50 (UACC-257 melanoma)?
Its GI50 is 599 nM.

And the TGI (UACC-257 melanoma)?
The TGI was 2110 nM.

What about the GI50 (A549 NSCLC) of the same compound?
The GI50 was 795 nM.

And the TGI (A549 NSCLC)?
The TGI was 10300 nM.

And the GI50 (HT29 colon)?
Its GI50 is 534 nM.

What about the TGI (HT29 colon) of the same compound?
Its TGI is 2330 nM.

And the GI50 (ACHN renal)?
Its GI50 is 642 nM.

And the TGI (ACHN renal)?
The TGI was 2770 nM.

What about the GI50 (OVCAR-3 ovarian) of the same compound?
The GI50 was 783 nM.

What about the TGI (OVCAR-3 ovarian) of the same compound?
Its TGI is 3080 nM.

And the GI50 (CCRF-CEM leukemia)?
Its GI50 is 422 nM.

And the TGI (CCRF-CEM leukemia)?
Its TGI is 25000 nM.

And the GI50 (M14 melanoma)?
The GI50 was 431 nM.

And the TGI (M14 melanoma)?
Its TGI is 962 nM.

What about the GI50 (NCI-H23 lung) of the same compound?
The GI50 was 587 nM.

What about the TGI (NCI-H23 lung) of the same compound?
Its TGI is 2140 nM.

What about the GI50 (MALME-3M melanoma) of the same compound?
The GI50 was 612 nM.

What about the TGI (MALME-3M melanoma) of the same compound?
Its TGI is 2370 nM.

What about the GI50 (NCI/ADR-RES ovarian) of the same compound?
Its GI50 is 783 nM.

What about the TGI (NCI/ADR-RES ovarian) of the same compound?
Its TGI is 8300 nM.

What about the GI50 (SK-MEL-2 melanoma) of the same compound?
Its GI50 is 468 nM.

And the TGI (SK-MEL-2 melanoma)?
Its TGI is 1480 nM.

What about the GI50 (SK-MEL-28 melanoma) of the same compound?
Its GI50 is 471 nM.

What about the TGI (SK-MEL-28 melanoma) of the same compound?
Its TGI is 1560 nM.

What about the GI50 (NCI-H226 lung) of the same compound?
The GI50 was 648 nM.

What about the TGI (NCI-H226 lung) of the same compound?
The TGI was 4360 nM.

What about the GI50 (OVCAR-5 ovarian) of the same compound?
The GI50 was 796 nM.

What about the TGI (OVCAR-5 ovarian) of the same compound?
Its TGI is 3820 nM.

And the GI50 (MDA-MB-435)?
The GI50 was 660 nM.

What about the TGI (MDA-MB-435) of the same compound?
Its TGI is 2670 nM.

And the GI50 (K-562 leukemia)?
Its GI50 is 507 nM.

And the TGI (K-562 leukemia)?
The TGI was 4480 nM.

What about the GI50 (COLO 205 colon) of the same compound?
The GI50 was 459 nM.

And the TGI (COLO 205 colon)?
The TGI was 1160 nM.

And the GI50 (LOX IMVI melanoma)?
The GI50 was 209 nM.

What about the TGI (LOX IMVI melanoma) of the same compound?
The TGI was 1640 nM.

What about the GI50 (KM12 colon) of the same compound?
Its GI50 is 567 nM.

And the TGI (KM12 colon)?
Its TGI is 5550 nM.

And the GI50 (MCF7 breast)?
Its GI50 is 459 nM.

What about the TGI (MCF7 breast) of the same compound?
The TGI was 14900 nM.

What about the GI50 (OVCAR-4 ovarian) of the same compound?
Its GI50 is 632 nM.

What about the TGI (OVCAR-4 ovarian) of the same compound?
The TGI was 1930 nM.

And the GI50 (SF-539 CNS)?
Its GI50 is 622 nM.

What about the TGI (SF-539 CNS) of the same compound?
The TGI was 1540 nM.

And the GI50 (HS 578T breast)?
Its GI50 is 723 nM.

What about the TGI (HS 578T breast) of the same compound?
The TGI was 2310 nM.

What about the GI50 (UO-31 renal) of the same compound?
Its GI50 is 712 nM.

And the TGI (UO-31 renal)?
The TGI was 4310 nM.

And the GI50 (SF-268 CNS)?
Its GI50 is 743 nM.

What about the TGI (SF-268 CNS) of the same compound?
The TGI was 5450 nM.

And the GI50 (HL-60(TB) leukemia)?
The GI50 was 522 nM.

And the TGI (HL-60(TB) leukemia)?
The TGI was 1350 nM.

And the GI50 (PC-3 prostate)?
Its GI50 is 799 nM.

What about the TGI (PC-3 prostate) of the same compound?
Its TGI is 8120 nM.

What about the GI50 (U251 CNS) of the same compound?
Its GI50 is 648 nM.

What about the TGI (U251 CNS) of the same compound?
Its TGI is 5600 nM.

What about the GI50 (UACC-62 melanoma) of the same compound?
Its GI50 is 653 nM.

What about the TGI (UACC-62 melanoma) of the same compound?
The TGI was 2420 nM.

What about the GI50 (786-0 renal) of the same compound?
Its GI50 is 615 nM.

What about the TGI (786-0 renal) of the same compound?
The TGI was 3370 nM.

And the GI50 (SF-295 CNS)?
Its GI50 is 715 nM.

And the TGI (SF-295 CNS)?
The TGI was 4770 nM.

What about the GI50 (TK-10 renal) of the same compound?
The GI50 was 664 nM.

What about the TGI (TK-10 renal) of the same compound?
Its TGI is 2500 nM.

And the GI50 (RPMI-8226 leukemia)?
Its GI50 is 522 nM.

What about the TGI (RPMI-8226 leukemia) of the same compound?
Its TGI is 1500 nM.

What about the GI50 (SK-MEL-5 melanoma) of the same compound?
The GI50 was 528 nM.

What about the TGI (SK-MEL-5 melanoma) of the same compound?
The TGI was 1370 nM.

What about the GI50 (EKVX NSCLC) of the same compound?
Its GI50 is 873 nM.

And the TGI (EKVX NSCLC)?
Its TGI is 5700 nM.

What about the GI50 (NCI-H522 lung) of the same compound?
Its GI50 is 486 nM.

What about the TGI (NCI-H522 lung) of the same compound?
Its TGI is 1620 nM.

What about the GI50 (SN12C renal) of the same compound?
Its GI50 is 643 nM.

And the TGI (SN12C renal)?
The TGI was 3890 nM.

And the GI50 (HCT-15 colon)?
Its GI50 is 671 nM.

What about the TGI (HCT-15 colon) of the same compound?
The TGI was 16500 nM.

And the GI50 (SK-OV-3 ovarian)?
Its GI50 is 896 nM.

What about the TGI (SK-OV-3 ovarian) of the same compound?
The TGI was 6560 nM.

What about the GI50 (HOP-62 NSCLC) of the same compound?
The GI50 was 639 nM.

What about the TGI (HOP-62 NSCLC) of the same compound?
The TGI was 1980 nM.

And the GI50 (T-47D breast)?
Its GI50 is 529 nM.

What about the TGI (T-47D breast) of the same compound?
Its TGI is 1970 nM.

And the GI50 (SW-620 colon)?
Its GI50 is 634 nM.

And the TGI (SW-620 colon)?
Its TGI is 6280 nM.

What about the GI50 (HCT-116 colon) of the same compound?
Its GI50 is 429 nM.

What about the TGI (HCT-116 colon) of the same compound?
Its TGI is 2630 nM.

And the GI50 (BT-549 breast)?
The GI50 was 699 nM.

What about the TGI (BT-549 breast) of the same compound?
The TGI was 1920 nM.

And the GI50 (A498 renal)?
Its GI50 is 676 nM.

What about the TGI (A498 renal) of the same compound?
The TGI was 2380 nM.

What about the GI50 (HCC-2998 colon) of the same compound?
Its GI50 is 769 nM.

And the TGI (HCC-2998 colon)?
The TGI was 2720 nM.

What about the GI50 (MDA-MB-231 breast) of the same compound?
The GI50 was 604 nM.

And the TGI (MDA-MB-231 breast)?
The TGI was 2030 nM.

And the GI50 (RXF 393 renal)?
Its GI50 is 499 nM.

What about the TGI (RXF 393 renal) of the same compound?
Its TGI is 1620 nM.

What about the GI50 (OVCAR-8 ovarian) of the same compound?
The GI50 was 756 nM.

And the TGI (OVCAR-8 ovarian)?
Its TGI is 5490 nM.

What about the GI50 (SNB-19 CNS) of the same compound?
The GI50 was 565 nM.

And the TGI (SNB-19 CNS)?
Its TGI is 3330 nM.

What about the GI50 (IGROV1 ovarian) of the same compound?
Its GI50 is 842 nM.

What about the TGI (IGROV1 ovarian) of the same compound?
Its TGI is 6440 nM.

What about the GI50 (HOP-92 NSCLC) of the same compound?
The GI50 was 538 nM.

And the TGI (HOP-92 NSCLC)?
Its TGI is 1890 nM.

And the GI50 (NCI-H460 lung)?
The GI50 was 668 nM.

What about the TGI (NCI-H460 lung) of the same compound?
Its TGI is 4400 nM.

And the GI50 (SNB-75 CNS)?
The GI50 was 470 nM.

What about the TGI (SNB-75 CNS) of the same compound?
The TGI was 1960 nM.

Source: PubChem BioAssay (NCI)
